Consider one compound from US20230190731A1, “FORMULATION COMPRISING HIF PROLYL HYDROXYLASE INHIBITORS” (ZYDUS LIFESCIENCES LIMITED, priority 2020, published 2023).

SMILES strings stand for the structures.

Series [1] in a line: Solubility of compounds of formula (Ia) in various media. In kind it is physicochemical.
Series [2] relates to hypoxia inducible factor (HIF) prolyl hydroxylase. Nature of the series: Inhibition of hypoxia inducible factor (HIF) prolyl hydroxylase (statement only). It counts as biochemical.

With `O=C(O)CNC(=O)c1c(O)c2ccccc2n(OCC2CC2)c1=O` [Compound (Ia)], the solubility result in series [1] (in 0.1 N HCL) is “insoluble”; in series [1] (in N,N-dimethyl formamide) it was “freely soluble”; in series [1] (in alkaline aqueous condition) it was “soluble”; in series [1] (in water) it was “partially soluble”. Further, the “inhibitor of HIF prolyl hydroxylase” value in series [2] is listed as “potent inhibitor”.
